Experiments:
Experiment in all cases: relative viability (nuclei count vs DMSO), 5 days (fraction); higher = more cells survive
Avagacestat = compound: NC(=O)[C@@H](CCC(F)(F)F)N(Cc1ccc(-c2ncon2)cc1F)S(=O)(=O)c1ccc(Cl)cc1 [Avagacestat]
Method in brief: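 Viability is treated-well nuclei as a fraction of vehicle-well nuclei, reported as the median across plates. Before counting, lung cancer cell lines were kept overnight at 37 °C in 1536-well plates, pinned with five √10-spaced library-drug doses on vehicle-anchored plates, and left 5 days without medium change, then fixed, permeabilised and Hoechst-stained in one step, imaged at 4× and counted by MetaXpress. A plate passed only if control CV was below 25% and at least one doubling occurred.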

[1] = compound: NC(=O)[C@@H](CCC(F)(F)F)N(Cc1ccc(-c2ncon2)cc1F)S(=O)(=O)c1ccc(Cl)cc1 [Avagacestat] + CC(=O)c1c(C)c2cnc(Nc3ccc(N4CCNCC4)cn3)nc2n(C2CCCC2)c1=O [Palbociclib] (partner 0.5 µM)
Method in brief: (§1)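 Lung cancer cell lines, seeded in 1536-well plates, were treated the following day by pin tool with a single drug or with five library-drug doses (not always all listed) in √10 steps on top of a fixed anchor-drug dose. Cells were fixed and nuclei stained in one step after 5 days, and nuclei were counted. Relative viability is the nuclei count for treated wells divided by that for vehicle wells, reported as medians of duplicate plates.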

Avagacestat + OSI-027 = compound: NC(=O)[C@@H](CCC(F)(F)F)N(Cc1ccc(-c2ncon2)cc1F)S(=O)(=O)c1ccc(Cl)cc1 [Avagacestat] + COc1cccc2cc(-c3nc([C@H]4CC[C@H](C(=O)O)CC4)n4ncnc(N)c34)[nH]c12 [OSI-027] (partner 0.5 µM)
Method in brief: as §1

Avagacestat + Foretinib = compound: NC(=O)[C@@H](CCC(F)(F)F)N(Cc1ccc(-c2ncon2)cc1F)S(=O)(=O)c1ccc(Cl)cc1 [Avagacestat] + COc1cc2c(Oc3ccc(NC(=O)C4(C(=O)Nc5ccc(F)cc5)CC4)cc3F)ccnc2cc1OCCCN1CCOCC1 [Foretinib] (partner 0.25 µM)
Method in brief: as §1

Cell Line	relative viability (Avagacestat; 0.08 µM)	relative viability (Avagacestat; 0.253 µM)	relative viability (Avagacestat; 0.8 µM)	relative viability (Avagacestat; 2.53 µM)	relative viability (Avagacestat; 8 µM)	relative viability ([1]; first compound 0.08 µM)	relative viability ([1]; first compound 0.253 µM)	relative viability ([1]; first compound 0.8 µM)	relative viability ([1]; first compound 2.53 µM)	relative viability ([1]; first compound 8 µM)	relative viability (Avagacestat + OSI-027; first compound 0.08 µM)	relative viability (Avagacestat + OSI-027; first compound 0.253 µM)	relative viability (Avagacestat + OSI-027; first compound 0.8 µM)	relative viability (Avagacestat + OSI-027; first compound 2.53 µM)	relative viability (Avagacestat + OSI-027; first compound 8 µM)	relative viability (Avagacestat + Foretinib; first compound 0.08 µM)	relative viability (Avagacestat + Foretinib; first compound 0.253 µM)	relative viability (Avagacestat + Foretinib; first compound 0.8 µM)	relative viability (Avagacestat + Foretinib; first compound 2.53 µM)	relative viability (Avagacestat + Foretinib; first compound 8 µM)
NCI-H1666	1.28	1.18	1.26	1.17	1.17	0.69	0.699	0.642	0.714	0.644	1.2	0.933	1.1	0.911	0.905	1.32	1.15	1.16	1.07	1.07
NCI-H1734	1.04	1.19	1	1.04	0.994	0.384	0.335	0.399	0.301	0.328	0.612	0.713	0.643	0.552	0.515	0.932	0.934	0.839	0.771	0.835
NCI-H1755	1.03	1.1	1.17	0.941	0.964	0.444	0.438	0.492	0.389	0.463	0.816	0.748	0.742	0.654	0.579	0.951	0.921	1	0.847	0.849
NCI-H1793	1.04	1.11	1.06	0.858	0.846	0.348	0.324	0.331	0.263	0.316	0.327	0.338	0.373	0.233	0.249	0.686	0.693	0.854	0.473	0.619
NCI-H1915	1.04	1.21	1.06	1.03	0.978	0.513	0.522	0.477	0.502	0.519	0.744	0.639	0.596	0.582	0.568	1.21	1.26	1.21	1.06	1.03
NCI-H1944	1.06	1.15	0.924	0.865	0.922	0.32	0.343	0.265	0.272	0.269	0.394	0.501	0.404	0.343	0.38	0.895	1.06	0.795	0.644	0.779
NCI-H1975	1.02	1.21	1.15	0.943	0.967	0.688	0.633	0.887	0.599	0.536	0.874	0.709	0.873	0.582	0.603	1.1	1.16	0.988	1.02	1.01
NCI-H1993	1.16	1.09	1.34	0.93	1.01	0.758	0.714	0.705	0.572	0.638	0.583	0.548	0.536	0.524	0.521	0.924	0.885	0.973	0.763	0.787
NCI-H2009	1.04	1.09	1.04	1.04	0.912	0.201	0.202	0.214	0.215	0.199	0.708	0.749	0.662	0.579	0.563	1.31	1.39	1.24	1.24	1.21
NCI-H2023	1.18	1.22	1.1	0.912	0.804	0.363	0.327	0.33	0.316	0.294	0.471	0.466	0.505	0.344	0.302	0.857	0.892	1	0.847	0.65
NCI-H2085	1.05	1.02	1.04	1.1	0.985	0.464	0.469	0.478	0.468	0.511	0.928	0.837	0.898	0.742	0.897	1.25	1.09	1.06	1.11	0.911
NCI-H2087	1.29	1.06	1.12	1.08	1.06	0.228	0.181	0.276	0.223	0.231	0.631	0.617	0.63	0.54	0.575	1.11	1.39	1.09	1.09	1.23
NCI-H2126	0.994	1.04	1.06	0.921	0.936	0.395	0.355	0.385	0.358	0.373	0.847	0.721	0.703	0.616	0.669	1.53	1.21	1.34	1.06	1.02
NCI-H2170	1.08	1.18	0.994	0.938	0.932	0.421	0.469	0.419	0.404	0.433	0.862	0.8	0.851	0.721	0.643	1.02	1.12	0.988	0.899	1.01
NCI-H2228	1.07	1.22	1.29	0.9	1.01	0.783	0.819	0.947	0.911	0.595	0.849	0.455	0.57	0.503	0.504	1.07	1.1	0.941	0.773	0.793
NCI-H2342	0.955	0.906	0.935	0.888	0.949	0.527	0.482	0.523	0.523	0.552	0.589	0.597	0.674	0.602	0.572	1.22	1.05	0.924	1.02	0.939
